pIC50: −log10 of the molar value. In brackets after ≈: the same amount, converted by molar mass. Where two headings read alike, the source gives them in different places.
How the values were obtained:
[1] = test system: Escherichia coli (ATCC25922); assay: MIC, broth microdilution (CLSI), Escherichia coli ATCC25922
[2] = test system: Staphylococcus aureus (ATCC25923); assay: MIC, broth microdilution (CLSI), Staphylococcus aureus ATCC25923
[3] = test system: E. coli RNase P RNA, M1 RNA; assay: Inhibition of bacterial RNase P activity, IC50 determination (cleavage of pATSerUG by M1 RNA); type: biochemical; settings: NI = No inhibition
[4] = test system: Staphylococcus aureus subsp. aureus (ATCC29213); assay: MIC, broth microdilution (CLSI), Staphylococcus aureus subsp. aureus ATCC29213; type: cell-based; settings: ATCC29213, Table 15, read-out: S. aureus ("wound") (MIC)
[5] = ATCC25922, read-out: E. coli MIC, Table 15, NI = No inhibition
[6] = ATCC25923, read-out: S. aureus ("Clinical") MIC

| MIC [2, 6] | Structure (SMILES) | MIC [1, 5] | MIC ([1]; ATCC25922, read-out: E. coli MIC) | MIC ([2]; ATCC25923, read-out: S. aureus ("Clinical") MIC, Table 15) | pIC50 [3] | MIC [4] |
| --- | --- | --- | --- | --- | --- | --- |
| 7 µg/mL (≈ 17.2 µM) | NC1CCCCC1C(=O)Nc1cc(C(F)(F)F)cc2c1Nc1ccccc1S2 (centres unmarked) [compound 113, 2-amino-N-(3-(trifluoromethyl)-10H-phenothiazin-1-yl)cyclohexane-carboxamide] | > 100 µg/mL |  |  |  |  |
| 52 µg/mL (≈ 127 µM) | NC1CC(C(=O)Nc2cc(C(F)(F)F)cc3c2Nc2ccccc2S3)CCN1 (centres unmarked) [compound 139, 2-amino-N-(3-(trifluoromethyl)-10H-phenothiazin-1-yl)piperidine-4-carboxamide] | > 100 µg/mL |  |  |  |  |
| 24 µg/mL (≈ 63.6 µM) | NC1CCCC(CNc2cc(C(F)(F)F)cc3c2Nc2ccccc2O3)C1 (centres unmarked) [compound 164, N-((3-aminocyclohexyl)methyl)-3-(trifluoromethyl)-10H-phenoxazin-1-amine] | 97 µg/mL (≈ 257 µM) |  |  |  |  |
|  | NCC(CCl)Nc1cc(C(F)(F)F)cc2c1Nc1ccccc1S2 (centres unmarked) [compound 178, 3-chloro-N2-(3-(trifluoromethyl)-10H-phenothiazin-1-yl)propane-1,2-diamine] |  | 48 µg/mL (≈ 128 µM) | 6 µg/mL (≈ 16.1 µM) |  |  |
| 3 µg/mL (≈ 7.12 µM) | NCCC1CCC(CNc2cc(C(F)(F)F)cc3c2Nc2ccccc2S3)CC1 (centres unmarked) [compound 179, N-((4-(2-aminoethyl)cyclohexyl)methyl)-3-(trifluoromethyl)-10H-phenothiazin-1-amine] | 12 µg/mL (≈ 28.5 µM) |  |  |  |  |
| 6 µg/mL (≈ 15.2 µM) | OCC1CCC(Nc2cc(C(F)(F)F)cc3c2Nc2ccccc2S3)CC1 (centres unmarked) [compound 192, (4-((3-(trifluoromethyl)-10H-phenothiazin-1-yl)amino)cyclohexyl) methanol] |  |  |  |  |  |
| 3 µg/mL (≈ 7.25 µM) | Cc1c(-c2ccc3c(c2)Sc2ccccc2N3CCCN(C)C)[nH]c2ccccc12 [compound 198, N,N-dimethyl-3-(3-(3-methyl-1H-indol-2-yl)-10H-phenothiazin-10-yl)propan-1-amine] |  |  |  |  |  |
| 25 µg/mL (≈ 62.9 µM) | Nc1cc(C(F)(F)F)cc2c1Nc1ccc(-c3cc4ccccc4[nH]3)cc1S2 [compound 205, 7-(1H-indol-2-yl)-3-(trifluoromethyl)-10H-phenothiazin-1-amine] |  |  |  | 3.44 |  |
| 3 µg/mL (≈ 8.39 µM) | NCCN1c2ccccc2Sc2cc(-c3cc4ccccc4[nH]3)ccc21 [compound 213, 2-(3-(1H-indol-2-yl)-10H-phenothiazin-10-yl)ethanamine] | 23 µg/mL (≈ 64.3 µM) |  |  |  |  |
| 7 µg/mL (≈ 15.5 µM) | NCCNCCN1CCC(Nc2cc(C(F)(F)F)cc3c2Nc2ccccc2S3)CC1 [compound 219, N1-(2-(4-((3-(trifluoromethyl)-10H-phenothiazin-1-yl)amino)piperidin-1-yl)ethyl)ethane-1,2-diamine] | 14 µg/mL (≈ 31 µM) |  |  |  |  |
| 6 µg/mL (≈ 15.2 µM) | NCCN1CCC(Nc2cc(C(F)(F)F)cc3c2Nc2ccccc2S3)C1 (centres unmarked) [compound 228, N-(1-(2-aminoethyl)pyrrolidin-3-yl)-3-(trifluoromethyl)-10H-phenothiazin-1-amine] | 13 µg/mL (≈ 33 µM) |  |  |  |  |
| 4 µg/mL (≈ 9 µM) | CN(C)CCCN1c2ccc(-c3cc4ccccc4[nH]3)cc2Sc2cc([N+](=O)[O-])ccc21 [compound 241, 3-(3-(1H-indol-2-yl)-7-nitro-10H-phenothiazin-10-yl)-N,N-dimethylpropan-1-amine] |  |  |  |  |  |
| 2 µg/mL (≈ 4.27 µM) | NC(Cc1c[nH]c2ccccc12)C(=O)Nc1cc(C(F)(F)F)cc2c1Nc1ccccc1S2 (centres unmarked) [compound 253, 2-amino-3-(1H-indol-3-yl)-N-(3-(trifluoromethyl)-10H-phenothiazin-1-yl)propanamide] |  |  |  |  |  |
| 2 µg/mL (≈ 4.66 µM) | COc1ccc2c(c1)Sc1cc(-c3cc4ccccc4[nH]3)ccc1N2CCCN(C)C [compound 254, 3-(3-(1H-indol-2-yl)-7-methoxy-10H-phenothiazin-10-yl)-N,N-dimethylpropan-1-amine] |  |  |  |  |  |
|  | Cl.NC1CCCC(C(=O)Nc2cc(C(F)(F)F)cc3c2Nc2ccc(N4CCCC4)cc2S3)C1 (centres unmarked) [compound 294, 3-amino-N-(7-(pyrrolidin-1-yl)-3-(trifluoromethyl)-10H-phenothiazin-1-yl)cyclohexane-1-carboxamide hydrochloride] | 64 µg/mL |  |  | 5.62 | 8 µg/mL |
|  | CN(C)C1CCN(c2ccc3c(c2)Sc2cc(C(F)(F)F)cc(NC4CCN(CCN)CC4)c2N3)CC1.Cl.Cl [compound 295, N-(1-(2-aminoethyl)piperidin-4-yl)-7-(4-(dimethylamino)piperidin-1-yl)-3-(trifluoromethyl)-10H-phenothiazin-1-amine hydrochloride] | 128 µg/mL |  |  | 4.68 | 32 µg/mL |
|  | Cl.NCCNCCCNc1cc(C(F)(F)F)cc2c1Nc1ccccc1S2 [compound 297, N1-(2-aminoethyl)-N3-(3-(trifluoromethyl)-10H-phenothiazin-1-yl)propane-1,3-diamine hydrochloride] | 32 µg/mL |  |  | 4.37 | 16 µg/mL |
|  | Cl.NCCNCCCNc1cc(C(F)(F)F)cc2c1Nc1ccc(Br)cc1S2 [compound 298, N1-(2-aminoethyl)-N3-(7-bromo-3-(trifluoromethyl)-10H-phenothiazin-1-yl)propane-1,3-diamine] | 8 µg/mL |  |  | 4.85 | 8 µg/mL |
|  | CN(C)C1CCN(c2ccc3c(c2)Sc2cc(C(F)(F)F)cc(NC4CCN(CCN)CC4)c2N3)C1.Cl.Cl (centres unmarked) [compound 299, N-(1-(2-aminoethyl)piperidin-4-yl)-7-(3-(dimethylamino)pyrrolidin-1-yl)-3-(trifluoromethyl)-10H-phenothiazin-1-amine hydrochloride] | 32 µg/mL |  |  | 5.17 | 8 µg/mL |
|  | Cl.Cl.NCCN1CCC(Nc2cc(C(F)(F)F)cc3c2Nc2ccc(N4CCC(F)(F)C4)cc2S3)CC1 [compound 303, N-(1-(2-aminoethyl)piperidin-4-yl)-7-(3,3-difluoro-pyrrolidin-1-yl)-3-(trifluoromethyl)-10H-phenothiazin-1-amine hydrochloride] | 32 µg/mL |  |  | 5.01 | 8 µg/mL |
|  | CC1CCN(c2ccc3c(c2)Sc2cc(C(F)(F)F)cc(NC4CCN(CCN)CC4)c2N3)C1.Cl.Cl (centres unmarked) [compound 311, N-(1-(2-aminoethyl)piperidin-4-yl)-7-(3-methyl-pyrrolidin-1-yl)-3-(trifluoromethyl)-10H-phenothiazin-1-amine hydrochloride] | 8 µg/mL |  |  | 5.60 | 2 µg/mL |
|  | Cl.Cl.NC1CCCC(C(=O)Nc2cc(C(F)(F)F)cc3c2Nc2ccc(Br)cc2S3)C1 (centres unmarked) [compound 312, 3-amino-N-(7-bromo-3-(trifluoromethyl)-10H-phenothiazin-1-yl)cyclohexane-1-carboxamide hydrochloride] | 16 µg/mL |  |  | 4.92 | 2 µg/mL |
|  | CC1CCCCN1c1ccc2c(c1)Sc1cc(C(F)(F)F)cc(NC3CCN(CCN)CC3)c1N2.Cl.Cl.Cl (centres unmarked) [compound 314, N-(1-(2-aminoethyl)piperidin-4-yl)-7-(2-methyl-piperidin-1-yl)-3-(trifluoromethyl)-10H-phenothiazin-1-amine hydrochloride] | 8 µg/mL |  |  | 4.52 | 4 µg/mL |
|  | Cl.NCCN1CCC(Nc2cc(C(F)(F)F)cc3c2Nc2ccc(N4CC5(CCC5)C4)cc2S3)CC1 [compound 325, N-(1-(2-aminoethyl)piperidin-4-yl)-7-(2-azaspiro [3.3]heptan-2-yl)-3-(trifluoromethyl)-10H-phenothiazin-1-amine hydrochloride] | 8 µg/mL |  |  | 5.19 | 2 µg/mL |
|  | Cl.Cl.NCCN(CCN)CCN1CCC(Nc2cc(C(F)(F)F)cc3c2Nc2ccc(Br)cc2S3)CC1 [compound 331, N1-(2-aminoethyl)-N1-(2-(4-((7-bromo-3-(trifluoromethyl)-10H-phenothiazin-1-yl)amino)piperidin-1-yl)ethyl)ethane-1,2-diamine hydrochloride] | 8 µg/mL |  |  | 5.29 | 4 µg/mL |
|  | CC1(C)CCN(c2ccc3c(c2)Sc2cc(C(F)(F)F)cc(NC4CCN(CCN)CC4)c2N3)C1.Cl [compound 332, N-(1-(2-aminoethyl)piperidin-4-yl)-7-(3,3-dimethyl-pyrrolidin-1-yl)-3-(trifluoromethyl)-10H-phenothiazin-1-amine hydrochloride] | 8 µg/mL |  |  | 5.39 | 1 µg/mL |
|  | CC1CCN(c2ccc3c(c2)Sc2cc(C(F)(F)F)cc(NC4CCN(CCN)CC4)c2N3)C1C.Cl (centres unmarked) [compound 336, N-(1-(2-aminoethyl)piperidin-4-yl)-7-(2,3-dimethyl-pyrrolidin-1-yl)-3-(trifluoromethyl)-10H-phenothiazin-1-amine hydrochloride] | 4 µg/mL |  |  | 4.72 | 1 µg/mL |
|  | CC1CC(C)N1c1ccc2c(c1)Sc1cc(C(F)(F)F)cc(NC3CCN(CCN)CC3)c1N2.Cl (centres unmarked) [compound 337, N-(1-(2-aminoethyl)piperidin-4-yl)-7-(2,4-dimethyl-azetidin-1-yl)-3-(trifluoromethyl)-10H-phenothiazin-1-amine hydrochloride] | 4 µg/mL |  |  | 4.59 | 2 µg/mL |

| Structure (SMILES) | MIC [2, 6] | MIC [1, 5] | MIC ([1]; ATCC25922, read-out: E. coli MIC) | MIC ([2]; ATCC25923, read-out: S. aureus ("Clinical") MIC, Table 15) | pIC50 [3] | MIC [4] |
| --- | --- | --- | --- | --- | --- | --- |
| CN(C)CCCN1c2ccccc2Sc2cc(-c3cc4cc(C#N)ccc4[nH]3)ccc21.O=C(O)C(F)(F)F [compound 151, 2-(10-(3-(dimethylamino)propyl)-10H-phenothiazin-3-yl)-1H-indole-5-carbonitrile 2,2,2-trifluoroacetate salt] | 3 µg/mL | > 100 µg/mL |  |  |  |  |
| NCCN1CCOC[C@H]1C(=O)Nc1cc(C(F)(F)F)cc2c1Nc1ccccc1S2.O=C(O)C(F)(F)F [compound 157, (S)-4-(2-aminoethyl)-N-(3-(trifluoro-methyl)-10H-phenothiazin-1-yl)morpholine-3-carboxamide 2,2,2-trifluoroacetate] | 71 µg/mL | > 100 µg/mL |  |  |  |  |
| NC1CCCC(CC(=O)Nc2cc(C(F)(F)F)cc3c2Nc2ccccc2S3)C1.O=C(O)C(F)(F)F (centres unmarked) [compound 165, 2-(3-aminocyclohexyl)-N-(3-(trifluoromethyl)-10H-phenothiazin-1-yl)acetamide 2,2,2-trifluoroacetate] | 17 µg/mL | 34 µg/mL |  |  |  |  |

Reference: patent publication US11130741B2 (Bioimics AB, priority 2016, dated 2021)
